Laboratory results: patent US8507411B2, “Neoglycorandomization and digitoxin analogs” (priority 2004, dated 2013)
Where two headings read alike, the source gives them in different places.

Columns and labels:
MCF7 = test: High-throughput calcein AM cytotoxicity assay, MCF7; assay type: cell-based, human; conditions: read-out: IC50, MCF7
From the text: (§1) Standard errors are depicted with error bars.

Hep3B = test: High-throughput calcein AM cytotoxicity assay, Hep3B; assay type: cell-based, human; conditions: Hep 3B cells, read-out: IC50, Hep 3B
From the text: as §1

SK-OV-3 = test: cells; assay type: cell-based, human
In short: (§2)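 Plated cells received compound dilutions after 1 h attachment and sat 72 h at 37 °C, 5% CO2. Serum was washed off with PBS before calcein AM staining, since serum esterases interfere. Four-parameter fits with variable Hill slope gave IC50s.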

NCI/ADR-RES = test: cells; assay type: cell-based, human
In short: as §2

SF-268 = test: cells; assay type: cell-based, human
In short: as §2

Du145 = test: High-throughput calcein AM cytotoxicity assay, Du145; assay type: cell-based, human; conditions: read-out: IC50, Du145
From the text: as §1

A549 = test: High-throughput calcein AM cytotoxicity assay, A549; assay type: cell-based, human; conditions: read-out: IC50, A549
From the text: as §1

NmuMG = test: cells; assay type: cell-based, mouse
In short: as §2

HCT-116 = test: High-throughput calcein AM cytotoxicity assay, HCT-116; assay type: cell-based, human; conditions: read-out: IC50, HCT-116
From the text: as §1

[1] = system: nine human cancer cell lines and a mouse mammary normal epithelial control line; test: High-throughput calcein AM cytotoxicity assay, whole cell line panel; conditions: for cytotoxicity (in words): cell line panel, 72 h, calcein AM; for IC50: Homo sapiens
From the text: In the assay, live cells were distinguished by the presence of a ubiquitous intracellular enzymatic activity which converts the non-fluorescent cell-permeable molecule calcein AM to the intensely fluorescent molecule calcein, which is retained within live cells. The IC50 value for each library member represents at least six replicates of dose-response experiments conducted over five concentrations using two-fold dilutions. […] Standard errors are depicted with error bars. Numerical values and corresponding error values can be found in Table 4. Du145: […]; MCF7: human breast carcinoma; HCT-116: human colon carcinoma, Hep3B: human liver carcinoma; SF-268: human CNS glioblastoma; SK-OV-3: human ovary adenocarcinoma; NCI-H460: human lung carcinoma; A549: human lung adenocarcinoma; NCI/ADR-RES: human breast carcinoma; NmuMG: mouse mammary normal epithelial.
Cell Culture: All cell lines except NmuMG were maintained in RPMI 1640 medium from InVitrogen (Cat No. 11875-085) supplemented with 10% w/v fetal bovine serum (FBS) from ICN (Cat No. 2916154) and penicillin-streptomycin (PS) (100 U/mL and 100 μg/mL) from InVitrogen (Cat No. 15140-122). NmuMG cells were maintained in DMEM medium from InVitrogen (Cat No. 11965-084) supplemented with 10% w/v fetal bovine serum (FBS) from ICN (Cat No. 2916154), 10 μg/ml insulin (InVitrogen Cat No 12585-014), and penicillin-streptomycin (PS) (100 U/mL and 100 μg/mL) from InVitrogen (Cat No. 15140-122). Cells were harvested by trypsinization using 0.25% w/v trypsin and 0.1% w/v EDTA from InVitrogen (Cat No. 15-050-057) and then counted in a hemocytometer in duplicate with better than 10% agreement in field counts. Cells were plated at a cell density of 10,000-15,000 cells/well of each Corning Costar 96-well black tissue culture treated microtiter plate (Fisher Cat No. 07-200-627). Cells were grown for 1 h at 37° C., with 5% CO2 in a humidified incubator to allow cell attachment to occur before compound addition.
Library Member Handling and Preparation for Cytotoxicity Assays: Library members were stored at −20° C. under dessicating conditions before the assay. Library member stocks (100×) were prepared in Corning Costar polypropylene 96-well V-bottom polypropylene microtiter plates (Fisher Cat No. 07-200-695). Five serial 1:2 dilutions were made with anhydrous DMSO at 100× the final concentration used in the assay.
Library Member Addition: The library member-containing plates were diluted 1:10 with complete cell culture media. The 10× stocks (10 μL) were added to the attached cells using a Biomek FX liquid handler (Beckman-Coulter). Library member stocks (10 μL) were added to 90 μL of cells in each plate to insure full mixing of stocks with culture media using a Beckman FX liquid handler with 96-well head.
Determination of Cytotoxicity: Cells were incubated with the library members for 72 h before fluorescence reading. Test plates were removed from the incubator and washed 1× in sterile PBS to remove serum containing calcium esterases. Calcein AM reagent (30 μL, […]) was added and the cells were incubated for 30 min at 37° C. Plates were read for emission using a fluorescein filter (excitation 485 nm, emission 535 nm).
IC50 Calculation: For each library member, at least six dose response experiments were conducted. […] To calculate IC50, percent inhibitions were plotted as a function of log [concentration] and then fit to a four-parameter logistic model that allowed for a variable Hill slope using XLfit 4.1.
Cytotoxicity Assays. All cell lines except NmuMG were maintained in RPMI 1640 medium supplemented with 10% w/v fetal bovine serum (FBS) and penicillin-streptomycin (PS) (100 U/mL and 100 μg/mL).

NCI-H460 = test: High-throughput calcein AM cytotoxicity assay, NCI-H460; assay type: cell-based, human; conditions: read-out: IC50, NCI-H460
From the text: as §1

Na+/K+-ATPase = biological target: T1, Na+/K+-ATPase (Homo sapiens, UniProt P05023); test: Non-radioactive rubidium ion uptake assay, HEK-293 cells; assay type: cell-based; conditions: read-out: Na+/K+-ATPase Inhibition IC50
T1 construct: endogenous in cells; host or cells: HEK-293
Method: Na/K-ATPase Assays. Inhibition of Na^+/K^+-ATPase on HEK-293 cells and CHO-K1 cells by the library hits was determined by Aurora Biomed, Inc. using a high-throughput non-radioactive rubidium ion uptake assay. Experiments were conducted in duplicate using three different concentrations. Within each experiment, percent inhibition values at the three concentrations were expressed as the percent reduction of the maximum absorption signal observed for a 0 nM control. IC50 values were determined using the following formula: IC50=[(50−low %)/(high %−low %)]×(high conc.−low conc.)+low conc.
To assess how these structural modifications impact the ability of library members to inhibit Na^+/K^+-ATPases, a fundamental activity of cardiac glycosides (Paula, S., et al., (2005) Biochemistry 44, 498-510), library hits 5β, 15β, 23β, 27β, 33β, 40β, and digitoxin (1) were submitted to a non-radioactive rubidium uptake assay to gauge Na^+/K^+-ATPase inhibition in both […] human embryonic kidney cells and CHO-K1 hamster ovary cells (Gill, S. et al., (2004) ASSAY and Drug Development Technologies 2, 535-542).

[2] = SK-OV-3 cells, read-out: IC50, SK-OV-3
[3] = NCI/ADR-RES cells, read-out: IC50, NCI/ADR-RES
[4] = SF-268 cells, read-out: IC50, SF-268
[5] = NmuMG mouse mammary normal epithelial control line; read-out: IC50, NmuMG
[6] = read-out: IC50, SK-OV-3, SK-OV-3 cells
[7] = read-out: IC50, NCI/ADR-RES, NCI/ADR-RES cells
[8] = read-out: IC50, SF-268, SF-268 cells
[9] = Mus musculus, read-out: IC50, NmuMG

| Molecule | IC50 (MCF7; MCF7 cells) [µM] | IC50 (Hep3B) [µM] | IC50 (SK-OV-3; [2]) [µM] | IC50 (NCI/ADR-RES; [3]) [µM] | IC50 (SF-268; [4]) [µM] | IC50 (Du145; Du145 cells) [µM] | IC50 (A549; A549 cells) [µM] | IC50 (NmuMG; [5]) [µM] | IC50 (HCT-116; HCT-116 cells) [µM] | cytotoxicity (in words) [1] | IC50 (NCI-H460; NCI-H460 cells) [µM] | IC50 (SK-OV-3; [6]) [µM] | IC50 (NCI/ADR-RES; [7]) [µM] | IC50 (SF-268; [8]) [µM] | IC50 (NmuMG; [9]) [µM] | also measured |
| --- | --- | --- | --- | --- | --- | --- | --- | --- | --- | --- | --- | --- | --- | --- | --- | --- |
| 6-deoxy-6-azido-D-mannoside [41β] | 3.3 | 1.8 | 2.1 | 0.84 | 2.5 | 2 | 1.7 | > 25 | 6 | not active | 2.7 | – | – | – | – | – |
| CONC1CC[C@]2(C)C3CC[C@]4(C)[C@@H](C5=CC(=O)OC5)CC[C@]4(O)C3CC[C@@H]2C1 (stereo partly drawn) [3α, S—C(3) aglycon] | 13 | – | – | – | – | 2.9 | 8.3 | – | 9 | – | 2.4 | 3 | 5.1 | 3.5 | – | IC50 (NmuMG; read-out: IC50, NmuMG; NmuMG mouse mammary normal epithelial control line): > 25 µM; IC50 [1]: > 25 µM |
| CONC1CC[C@]2(C)C3CC[C@]4(C)[C@@H](C5=CC(=O)OC5)CC[C@]4(O)C3CC[C@@H]2C1 (stereo partly drawn) [3β, R—C(3)aglycon] | 1.8 | 1.4 | – | – | – | 1.3 | 1.2 | – | 1.2 | – | 0.7 | 0.9 | 0.71 | 1 | > 25 | IC50 ([1]; read-out: average IC50): ~1.1 µM |
| CON([C@H]1CC[C@@]2(C)[C@H](CC[C@@H]3[C@@H]2CC[C@]2(C)[C@@H](C4=CC(=O)OC4)CC[C@]32O)C1)[C@@H]1O[C@H](CO)[C@@H](O)[C@H](O)[C@H]1O [4β, D-glucoside] | 10 | 2.4 | 6 | 1.9 | 4.5 | 8.2 | 2.9 | 3.1 | 3.8 | relatively inactive | 3.5 | – | – | – | – | – |
| CON(C1CCC2(C)C(CCC3C2CCC2(C)C(C4=CC(=O)OC4)CCC32O)C1)C1OCC(O)C(O)C1O [15β, D-lyxoside] | – | – | – | – | – | – | – | – | – | significantly more potent than digitoxin against some cell lines | – | – | – | – | 0.069 | IC50 (MCF7; Homo sapiens, MCF7, MCF7 cells): 0.23 µM; IC50 (Hep3B; Homo sapiens, Hep3B): 0.09 µM; IC50 (SK-OV-3; Homo sapiens, SK-OV-3, read-out: IC50, SK-OV-3, SK-OV-3 cells): 0.16 µM; IC50 (NCI/ADR-RES; Homo sapiens, NCI/ADR-RES, read-out: IC50, NCI/ADR-RES, NCI/ADR-RES cells): 0.075 µM; IC50 (SF-268; Homo sapiens, SF-268, read-out: IC50, SF-268, SF-268 cells): 0.09 µM; IC50 (Du145; Homo sapiens, DU-145, Du145 cells): 0.07 µM; IC50 (A549; Homo sapiens, A549, A549 cells): 0.14 µM; IC50 (Na+/K+-ATPase): > 300 µM; IC50 (HCT-116; Homo sapiens, HCT-116, HCT-116 cells): 0.17 µM; IC50 (NCI-H460; Homo sapiens, NCI-H460, NCI-H460 cells): 0.09 µM |
